# “Also recorded” adds a separate entry of the source.
# Columns and labels:
# bacteria = assay: Binding of targeting peptides to microorganisms (Table 3); settings: preferably 1x PBS; for Target(s) (microorganism bound by the targeting peptide) / Target(s) (microorganisms bound by the targeting peptide): peptide binding in aqueous buffers that varied depending on peptide solubility
# microorganisms = assay: Morphology, biofilm and growth disruption by peptides (Table 5); format: cell-based; design: key: A: Peptide aggregates; B: Less hyphal formation; Clumps; Diffuse clumps and small polyps; F: Diffuse growth; H: Thin; I: Growth inhibition; Microcolony formation; Rippled; Small polyps; Thick; W: Halo formation on top, microlonies on bottom
# Source text: In certain embodiments peptides that induce alterations in phenotype or other biological activities can also be used as antimicrobial effector moieties.
# [1] = microorganism bound by the targeting peptide, binding in aqueous buffers chosen by peptide solubility
substance,measurement,setting,value
PF-664 (chain 1 DQLCVEYPARVSTG; chain 2 DQLCVEYPARVSTG; Peptide with targeting and/or antimicrobial activity),Target(s) (microorganism bound by the targeting peptide),bacteria,M. smegmatis
same,"Organism, effect (morphology, biofilm and growth disruption)",microorganisms; E. faecalis,E. faecalis (R)
same,"Organism, effect (morphology, biofilm and growth disruption)",microorganisms; MRSA,MRSA (R)
same,"Organism, effect (morphology, biofilm and growth disruption)",microorganisms; S. epidermidis,S. epidermidis (M)
same,"Organism, effect (morphology, biofilm and growth disruption)",microorganisms; S. pneumoniae,S. pneumoniae (M)
PF-698 (chain 1 SSGRAGVKCRRPTGR; chain 2 SSGRAGVKCRRPTGR; Peptide with targeting and/or antimicrobial activity),Target(s) (microorganism bound by the targeting peptide),bacteria,Mycobacteria spp
same,"Organism, effect (morphology, biofilm and growth disruption)",microorganisms; C. albicans,C. albicans (H)
same,"Organism, effect (morphology, biofilm and growth disruption)",microorganisms; E. faecalis,E. faecalis (A)
same,"Organism, effect (morphology, biofilm and growth disruption)",microorganisms; S. pneumoniae,S. pneumoniae (A)
PF-271 (AAQPQTTSP; Peptide with targeting and/or antimicrobial activity),Target(s),bacteria; [1],S. epidermidis; also recorded: M. luteus; also recorded: P. aeruginosa; also recorded: A. baumannii
same,"Organism, effect",microorganisms; M. luteus,M. luteus (T)
PF-685 (chain 1 PTLWLACL; chain 2 PTLWLACL; Peptide with targeting and/or antimicrobial activity),Target(s) (microorganism bound by the targeting peptide),bacteria,Mycobacteria spp
same,"Organism, effect (morphology, biofilm and growth disruption)",microorganisms; C. jeikeium,C. jeikeium (R)
same,"Organism, effect (morphology, biofilm and growth disruption)",microorganisms; E. faecalis,E. faecalis (R)
same,"Organism, effect (morphology, biofilm and growth disruption)",microorganisms; MRSA,MRSA (M)
same,"Organism, effect (morphology, biofilm and growth disruption)",microorganisms; S. epidermidis,S. epidermidis (M)
same,"Organism, effect (morphology, biofilm and growth disruption)",microorganisms; S. pneumoniae,S. pneumoniae (M)
PF-313 (YITSHKNARAIIKKFERDEILEEVITHYLNRK; Peptide with targeting and/or antimicrobial activity),Target(s),bacteria; [1],S. epidermidis; also recorded: C. difficile
same,"Organism, effect",microorganisms; S. epidermidis,S. epidermidis (C)
PF-604 (LMEQVEV; Peptide with targeting and/or antimicrobial activity),Target(s) (microorganism bound by the targeting peptide),bacteria,S. epidermidis; also recorded: C. albicans; also recorded: C. jeikeium
same,"Organism, effect (morphology, biofilm and growth disruption)",microorganisms; E. faecalis,E. faecalis (A)
PF-C181 (KMRAGQVVFIYKLILVLLFYVLQKLFDLKKGCF; Peptide with targeting and/or antimicrobial activity),Target(s) (microorganism bound by the targeting peptide),bacteria,P. gingivalis
same,"Organism, effect (morphology, biofilm and growth disruption)",microorganisms; F. nucleatum,F. nucleatum (T)
PF-C131 (QWIVAKREIRMHIYCHISVIHVIIFFG; Peptide with targeting and/or antimicrobial activity),Target(s) (microorganism bound by the targeting peptide),bacteria,A. naeslundii; also recorded: F. nucleatum; also recorded: P. gingivalis; also recorded: S. mutans
same,"Organism, effect (morphology, biofilm and growth disruption)",microorganisms; F. nucleatum,F. nucleatum (T)
same,"Organism, effect (morphology, biofilm and growth disruption)",microorganisms; S. mutans,S. mutans (F)
PF-647 (chain 1 GTFLGQKCAAATAS; chain 2 GTFLGQKCAAATAS; Peptide with targeting and/or antimicrobial activity),Target(s) (microorganism bound by the targeting peptide),bacteria,Mycobacteria spp
same,"Organism, effect (morphology, biofilm and growth disruption)",microorganisms; C. albicans,C. albicans (B)
same,"Organism, effect (morphology, biofilm and growth disruption)",microorganisms; S. pneumoniae,S. pneumoniae (R)
PF-008 (chain 1 MIEIGSIAYLNGGSKKYNHILNQENR; chain 2 MIEIGSIAYLNGGSKKYNHILNQENR; Peptide with targeting and/or antimicrobial activity),Target(s),"bacteria; microorganism the targeting peptide binds, binding in aqueous buffers that varied with peptide solubility",S. epidermidis and M. luteus and MRSA and C. jejuni
same,"Organism, effect",microorganisms; B. subtilis,B. subtilis (D)
same,"Organism, effect",microorganisms; C. jejuni,C. jejuni (R)
PF-660 (chain 1 TDPQATAAPRRRTSPR; chain 2 TDPQATAAPRRRTSPR; Peptide with targeting and/or antimicrobial activity),Target(s) (microorganism bound by the targeting peptide),bacteria,Mycobacteria spp
same,"Organism, effect (morphology, biofilm and growth disruption)",microorganisms; S. pneumoniae,S. pneumoniae (H)
PF-270 (MYLTPYAWIAVGSIFAFSVTTIKIGDQNDEKQKSHKNDVHKR; Peptide with targeting and/or antimicrobial activity),Target(s),bacteria; [1],S. epidermidis; also recorded: M. luteus; also recorded: P. aeruginosa
same,"Organism, effect",microorganisms; M. luteus,M. luteus (H)
GNVHPESDFHNLIQFIKTFLYFTIFFKYFL [PF-C290],Target(s) (microorganism bound by the targeting peptide),bacteria,A. naeslundii; also recorded: F. nucleatum; also recorded: P. gingivalis; also recorded: S. mutans; also recorded: T. denticola
same,"Organism, effect (morphology, biofilm and growth disruption)",microorganisms; S. mutans,S. mutans (F)
PF-434 (GQLLADKRPARDYNRK; Peptide with targeting and/or antimicrobial activity),Target(s) (microorganisms bound by the targeting peptide),bacteria,S. epidermidis; also recorded: M. luteus; also recorded: S. pneumoniae; also recorded: C. jeikeium
same,"Organism, effect (morphology, biofilm and growth disruption)",microorganisms; S. pneumoniae,S. pneumoniae (S)
PF-249 (INSRYKISF; Peptide with targeting and/or antimicrobial activity),Target(s),bacteria; [1],S. epidermidis; also recorded: M. luteus
same,"Organism, effect",microorganisms; M. luteus,M. luteus (R)
VMQSLYVKPPLILVTKLAQQN [PF-511],Target(s) (microorganisms bound by the targeting peptide),bacteria,E. coli; also recorded: P. aeruginosa; also recorded: S. pneumoniae; also recorded: C. jeikeium
same,"Organism, effect (morphology, biofilm and growth disruption)",microorganisms; S. pneumoniae,S. pneumoniae (H)
PF-413 (TFAGSIKIGVPDLVHVTFNCKR; Peptide with targeting and/or antimicrobial activity),Target(s) (microorganisms bound by the targeting peptide),bacteria,P. aeruginosa; also recorded: C. albicans; also recorded: C. jejuni
same,"Organism, effect",microorganisms; E. coli,E. coli (S)
same,"Organism, effect",microorganisms; MRSA,MRSA (C)
same,"Organism, effect",microorganisms; S. epidermidis,S. epidermidis (C)
PF-607 (YIESDPRKFDYIFGAIRDH; Peptide with targeting and/or antimicrobial activity),Target(s) (microorganism bound by the targeting peptide),bacteria,S. epidermidis and P. mirabilis and E. coli and MRSA and S. pneumoniae and C. jeikeium
same,"Organism, effect (morphology, biofilm and growth disruption)",microorganisms; C. jejuni,C. jejuni (R)
same,"Organism, effect (morphology, biofilm and growth disruption)",microorganisms; E. faecalis,E. faecalis (A)
same,"Organism, effect (morphology, biofilm and growth disruption)",microorganisms; MRSA,MRSA (S)
same,"Organism, effect (morphology, biofilm and growth disruption)",microorganisms; S. epidermidis,S. epidermidis (M)
same,"Organism, effect (morphology, biofilm and growth disruption)",microorganisms; S. pneumoniae,S. pneumoniae (R)
PF-192 (VEEDEAPPPHY; Peptide with targeting and/or antimicrobial activity),Target(s),bacteria; [1],S. epidermidis; also recorded: M. luteus; also recorded: P. aeruginosa; also recorded: C. albicans; also recorded: E. faecalis; also recorded: C. jeikeium
same,"Organism, effect",microorganisms; S. epidermidis,S. epidermidis (D)
PF-658 (chain 1 PTTPPPTTPPEIPTGGTVIST; chain 2 PTTPPPTTPPEIPTGGTVIST; Peptide with targeting and/or antimicrobial activity),Target(s) (microorganism bound by the targeting peptide),bacteria,Mycobacteria spp
same,"Organism, effect (morphology, biofilm and growth disruption)",microorganisms; MRSA,MRSA (R)
same,"Organism, effect (morphology, biofilm and growth disruption)",microorganisms; S. pneumoniae,S. pneumoniae (H)
PF-609 (TEIKLDNNEYLVLNLDDILGILK; Peptide with targeting and/or antimicrobial activity),Target(s) (microorganism bound by the targeting peptide),bacteria,P. mirabilis; also recorded: E. coli; also recorded: S. pneumoniae
same,"Organism, effect (morphology, biofilm and growth disruption)",microorganisms; C. jejuni,C. jejuni (R)
same,"Organism, effect (morphology, biofilm and growth disruption)",microorganisms; E. faecalis,E. faecalis (A)
same,"Organism, effect (morphology, biofilm and growth disruption)",microorganisms; MRSA,MRSA (C)
same,"Organism, effect (morphology, biofilm and growth disruption)",microorganisms; S. pneumoniae,S. pneumoniae (R)
PF-601 (YRVTVKALE; Peptide with targeting and/or antimicrobial activity),Target(s) (microorganism bound by the targeting peptide),bacteria,C. jeikeium
same,"Organism, effect (morphology, biofilm and growth disruption)",microorganisms; C. jejuni,C. jejuni (A)
same,"Organism, effect (morphology, biofilm and growth disruption)",microorganisms; E. faecalis,E. faecalis (A)
PF-667 (chain 1 PAHQRLRIDQRLVADRDMVQDYES; chain 2 PAHQRLRIDQRLVADRDMVQDYES; Peptide with targeting and/or antimicrobial activity),Target(s) (microorganism bound by the targeting peptide),bacteria,Mycobacteria spp
same,"Organism, effect (morphology, biofilm and growth disruption)",microorganisms; E. faecalis,E. faecalis (R)
same,"Organism, effect (morphology, biofilm and growth disruption)",microorganisms; MRSA,MRSA (R)
same,"Organism, effect (morphology, biofilm and growth disruption)",microorganisms; S. epidermidis,S. epidermidis (R)
same,"Organism, effect (morphology, biofilm and growth disruption)",microorganisms; S. pneumoniae,S. pneumoniae (R)
PF-C088 (DIANNILNSVSERLIIA; Peptide with targeting and/or antimicrobial activity),Target(s) (microorganism bound by the targeting peptide),bacteria,A. naeslundii; also recorded: F. nucleatum; also recorded: P. gingivalis; also recorded: S. mutans; also recorded: T. denticola
same,"Organism, effect (morphology, biofilm and growth disruption)",microorganisms; F. nucleatum,F. nucleatum (H)
same,"Organism, effect (morphology, biofilm and growth disruption)",microorganisms; P. gingivalis,P. gingivalis (R)
same,"Organism, effect (morphology, biofilm and growth disruption)",microorganisms; S. mutans,S. mutans (I)
PF-292 (SFVSTTVRLIFEESKRYKF; Peptide with targeting and/or antimicrobial activity),Target(s),bacteria; [1],S. epidermidis; also recorded: B. subtilis; also recorded: B. fragilis
same,"Organism, effect",microorganisms; B. subtilis,B. subtilis (C)
same,"Organism, effect",microorganisms; S. epidermidis,S. epidermidis (C)
PF-144 (RSGQPVGRPSRRAWLR; Peptide with targeting and/or antimicrobial activity),Target(s),bacteria; [1],S. epidermidis and M. luteus and E. coli and C. albicans and MRSA and S. pneumoniae and E. faecalis and C. jeikeium
same,"Organism, effect",microorganisms; S. pneumoniae,S. pneumoniae (H)
PF-680 (chain 1 ADPHPTTGI; chain 2 ADPHPTTGI; Peptide with targeting and/or antimicrobial activity),Target(s) (microorganism bound by the targeting peptide),bacteria,Mycobacteria spp
same,"Organism, effect (morphology, biofilm and growth disruption)",microorganisms; MRSA,MRSA (R)
PF-688 (chain 1 ARNHAVIPAG; chain 2 ARNHAVIPAG; Peptide with targeting and/or antimicrobial activity),Target(s) (microorganism bound by the targeting peptide),bacteria,Mycobacteria spp
same,"Organism, effect (morphology, biofilm and growth disruption)",microorganisms; S. pneumoniae,S. pneumoniae (A)
PF-692 (chain 1 GVAREDPLEPDPLAPIIDDSR; chain 2 GVAREDPLEPDPLAPIIDDSR; Peptide with targeting and/or antimicrobial activity),Target(s) (microorganism bound by the targeting peptide),bacteria,Mycobacteria spp
same,"Organism, effect (morphology, biofilm and growth disruption)",microorganisms; MRSA,MRSA (R)

# — patent publication US9597407B2, “Targeted antimicrobial moieties” (C3 Jian, Inc., priority 2009, dated 2017)
